These results are taken from patent US9873696B2, “Neprilysin inhibitors” (THERAVANCE BIOPHARMA R&D IP, LLC, priority 2010, dated 2018).

SMILES strings stand for the structures.

The target in this experiment is T1, human NEP (Homo sapiens, UniProt P08473).
T1 construct: purchased R&D Systems, Minneapolis, Minn; 1182-ZN
T1 sequence (P08473 whole entry): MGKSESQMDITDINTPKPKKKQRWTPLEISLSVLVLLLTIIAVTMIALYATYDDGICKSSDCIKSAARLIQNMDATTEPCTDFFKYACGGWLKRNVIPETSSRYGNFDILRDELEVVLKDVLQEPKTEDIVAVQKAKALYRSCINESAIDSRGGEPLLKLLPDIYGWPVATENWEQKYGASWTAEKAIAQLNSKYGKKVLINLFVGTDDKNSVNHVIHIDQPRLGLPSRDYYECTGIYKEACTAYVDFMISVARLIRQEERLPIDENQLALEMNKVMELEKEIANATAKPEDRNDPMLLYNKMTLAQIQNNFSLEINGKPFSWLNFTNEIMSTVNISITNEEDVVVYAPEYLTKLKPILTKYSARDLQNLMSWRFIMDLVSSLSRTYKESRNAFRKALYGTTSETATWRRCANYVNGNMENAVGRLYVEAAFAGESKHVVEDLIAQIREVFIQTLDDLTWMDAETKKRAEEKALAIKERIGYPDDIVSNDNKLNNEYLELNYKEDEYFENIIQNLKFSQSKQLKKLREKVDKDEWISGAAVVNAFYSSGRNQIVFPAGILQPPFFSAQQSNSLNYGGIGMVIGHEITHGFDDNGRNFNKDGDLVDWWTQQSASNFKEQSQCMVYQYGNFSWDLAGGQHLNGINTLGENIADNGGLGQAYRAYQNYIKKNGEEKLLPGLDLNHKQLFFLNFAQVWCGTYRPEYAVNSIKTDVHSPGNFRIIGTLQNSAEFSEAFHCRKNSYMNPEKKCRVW
Description: In vitro enzyme inhibition assay at human NEP (Assay 1). The class given is biochemical. The following applies: recombinant enzyme, fluorogenic peptide substrate, 37° C. As for the experimental part:
In Vitro Assays for the Quantitation of Inhibitor Potencies (IC50) at Human and Rat NEP, and Human ACE
The inhibitory activities of compounds at human and rat neprilysin (EC 3.4.24.11; NEP) and human angiotensin converting enzyme (ACE) were determined using in vitro assays as described below.
Recombinant human NEP and recombinant human ACE were obtained commercially (R&D Systems, Minneapolis, Minn., catalog numbers 1182-ZN and 929-ZN, respectively). The fluorogenic peptide substrate Mca-D-Arg-Arg-Leu-Dap-(Dnp)-OH (Medeiros et al. (1997) Braz. J. Med. Biol. Res. 30:1157-62; Anaspec, San Jose, Calif.) and Abz-Phe-Arg-Lys(Dnp)-Pro-OH (Araujo et al. (2000) Biochemistry 39:8519-8525; Bachem, Torrance, Calif.) were used in the NEP and ACE assays respectively.
The assays were performed in 384-well white opaque plates at 37° C. using the fluorogenic peptide substrates at a concentration of 10 μM in Assay Buffer (NEP: 50 mM HEPES, pH 7.5, 100 mM NaCl, 0.01% polyethylene glycol sorbitan monolaurate (Tween-20), 10 μM ZnSO4; ACE: 50 mM HEPES, pH 7.5, 100 mM NaCl, 0.01% Tween-20, 1 μM ZnSO4).
Test compounds were assayed over the range of concentrations from […] to 20 μM. Test compounds were added to the enzymes and incubated for 30 minute at 37° C. prior to initiating the reaction by the addition of substrate. Reactions were terminated after 20 minutes of incubation at 37° C. by the addition of glacial acetic acid to a final concentration of 3.6% (v/v).
Plates were read on a fluorometer with excitation and emission wavelengths set to 320 nm and 405 nm, respectively. Inhibition constants were obtained by nonlinear regression of the data using the equation (GraphPad Software, Inc., San Diego, Calif.): v=v0/[1+(I/K′)] where v is the reaction rate, v0 is the uninhibited reaction rate, I is the inhibitor concentration and K′ is the apparent inhibition constant.
Compounds of the invention were tested in this assay and found to have pKi values at human NEP as follows.
As for `O=C(NN(Cc1ccc(-c2cccc(Cl)c2)cc1)C[C@@H](O)C(=O)O)c1cc(C(=O)N2CCCC2)n[nH]1` [Example 4-11, (R)-3-{N-(3′-Chlorobiphenyl-4-ylmethyl)-N′-[5-(pyrrolidine-1-carbonyl)-2H-pyrazole-3-carbonyl]-hydrazino}-2-hydroxy-propionic acid], the Ki is not above 1 nM.

In the case of `Cc1cc(C(=O)NN(Cc2ccc(-c3cc(Cl)ccc3F)cc2)C[C@@H](O)C(=O)O)cc2[nH]nnc12` [Example 8-68, (R)-3-[N-(5′-Chloro-2′-fluoro-biphenyl-4-ylmethyl)-N′-(7-methyl-3H-benzotriazole-5-carbonyl)-hydrazino]-2-hydroxy-propionic acid], the inhibition constant (Ki) was 1.26 to 10 nM. Turning to `O=C(NN(Cc1ccc(-c2cccc(Cl)c2)cc1)C[C@@H](O)C(=O)O)c1cc(C(=O)N2CCC2)n[nH]1` [Example 4-12, (R)-3-[N′-[5-(Azetidine-1-carbonyl)-2H-pyrazole-3-carbonyl]-N-(3′-chlorobiphenyl-4-ylmethyl)-hydrazino]-2-hydroxy-propionic acid], the Ki was not above 1 nM. For the compound `COc1ccccc1-c1ccc(CN(C[C@@H](O)C(=O)O)NC(=O)c2cc(O)no2)cc1` [Example 5-5, (R)-2-Hydroxy-3-[N′-(3-hydroxy-isoxazole-5-carbonyl)-N-(2′-methoxy-biphenyl-4-ylmethyl)-hydrazino]-propionic acid], the Ki is 1.26 to 10 nM.

With `Cc1ccc(Cl)cc1-c1ccc(CN(C[C@@H](O)C(=O)O)NC(=O)c2nnn[nH]2)cc1` [Example 8-59, (R)-3-[N-(5′-Chloro-2′-methyl-biphenyl-4-ylmethyl)-N′-(1H-tetrazole-5-carbonyl)-hydrazino]-2-hydroxy-propionic acid], the Ki was not above 1 nM. With `O=C(NN(Cc1ccc(-c2cc(Cl)ccc2Cl)cc1)C[C@H](O)C(=O)O)c1cc(O)no1` [Example 8-22, (S)-3-[N-(2′,5′-Dichloro-biphenyl-4-ylmethyl)-N′-(3-hydroxy-isoxazole-5-carbonyl)-hydrazino]-2-hydroxy-propionic acid], the Ki is not above 1 nM. The result for `O=C(NN(Cc1ccc(-c2cc(Cl)ccc2F)cc1)C[C@@H](O)C(=O)O)c1cc(O)n(-c2ccccn2)n1` [Example 8-51, (R)-3-[N-(5′-Chloro-2′-fluoro-biphenyl-4-ylmethyl)-N′-(5-hydroxy-1-pyridin-2-yl-1H-pyrazole-3-carbonyl)-hydrazino]-2-hydroxy-propionic acid] reads 1.26 to 10 nM; that for `O=C(NN(Cc1ccc(-c2cccc(Cl)c2)cc1)C[C@@H](O)C(=O)O)c1cc(-c2ccccc2O)n[nH]1` [Example 4-19, (R)-3-{N-(3′-Chlorobiphenyl-4-ylmethyl)-N′-[5-(2-hydroxy-phenyl)-2H-pyrazole-3-carbonyl]-hydrazino}-2-hydroxy-propionic acid], 1.26 to 10 nM. `CN(CC1CC1)C(=O)c1cc(C(=O)NN(Cc2ccc(-c3cccc(Cl)c3)cc2)C[C@@H](O)C(=O)O)[nH]n1` [Example 4-17, (R)-3-{N-(3′-Chlorobiphenyl-4-ylmethyl)-N′-[5-(cyclopropylmethyl-methyl-carbamoyl)-2H-pyrazole-3-carbonyl]-hydrazino}-2-hydroxy-propionic acid]: the Ki was not above 1 nM. With `O=C(NN(Cc1ccc(-c2cccc(Cl)c2)cc1)C[C@@H](O)C(=O)O)c1nnn[nH]1` [Example 4-5, (R)-3-[N-(3′-Chlorobiphenyl-4-ylmethyl)-N′-(1H-tetrazole-5-carbonyl)-hydrazino]-2-hydroxy-propionic acid] the figure was not above 1 nM; with `CC(C)c1cc(C(=O)NN(Cc2ccc(-c3cc(Cl)ccc3F)cc2)C[C@@H](O)C(=O)O)nn1CC(=O)O` [Example 8-54, (R)-3-[N′-(1-Carboxymethyl-5-isopropyl-1H-pyrazole-3-carbonyl)-N-(5′-chloro-2′-fluoro-biphenyl-4-ylmethyl)-hydrazino]-2-hydroxy-propionic acid], 1.26 to 10 nM.

With `O=C(NN(Cc1ccc(-c2cc(Cl)ccc2F)cc1)C[C@@H](O)C(=O)O)c1cc(-c2cc(Cl)ccc2Cl)n[nH]1` [Example 8-41, (R)-3-{N-(5′-Chloro-2′-fluoro-biphenyl-4-ylmethyl)-N′-[5-(2,5-dichloro-phenyl)-2H-pyrazole-3-carbonyl]-hydrazino}-2-hydroxy-propionic acid], the Ki is not above 1 nM.

Take `O=C(NN(Cc1ccc(-c2cccc(Cl)c2)cc1)C[C@@H](O)C(=O)O)c1cnc(O)nc1` [Example 4-34, (R)-3-[N-(3′-Chlorobiphenyl-4-ylmethyl)-N′-(2-hydroxy-pyrimidine-5-carbonyl)-hydrazino]-2-hydroxy-propionic acid]: the Ki was not above 1 nM.

Take `O=C(NN(Cc1ccc(-c2ccccc2)cc1)C[C@@H](O)C(=O)O)c1cc(C(=O)N2CC[C@H](O)C2)n[nH]1` [Example 2-12, (R)-3-{N-Biphenyl-4-ylmethyl-N′-[5-((S)-3-hydroxy-pyrrolidine-1-carbonyl)-2H-pyrazole-3-carbonyl]hydrazino}-2-hydroxypropionic acid]: the Ki is 1.26 to 10 nM. Consider `O=C(NN(Cc1ccc(-c2cccc(Cl)c2)cc1)C[C@@H](O)C(=O)O)c1cc(C(=O)N2CC[C@@H](O)C2)n[nH]1` [Example 4-14, (R)-3-{N-(3′-Chlorobiphenyl-4-ylmethyl)-N′-[5-((R)-3-hydroxy-pyrrolidine-1-carbonyl)-2H-pyrazole-3-carbonyl]-hydrazino}-2-hydroxy-propionic acid], for which the Ki was not above 1 nM. With `O=C(NN(Cc1ccc(-c2cccc(Cl)c2)cc1)C[C@@H](O)C(=O)O)c1ccc2[nH]nnc2c1F` [Example 4-42, (R)-3-[N-(3′-Chlorobiphenyl-4-ylmethyl)-N′-(4-fluoro-1H-benzotriazole-5-carbonyl)-hydrazino]-2-hydroxy-propionic acid], the Ki is 1.26 to 10 nM. In the case of `COc1cc(C(=O)NN(Cc2ccc(-c3cc(Cl)ccc3F)cc2)C[C@@H](O)C(=O)O)on1` [Example 8-9, (R)-3-[N-(5′-Chloro-2′-fluoro-biphenyl-4-ylmethyl)-N′-(3-methoxy-isoxazole-5-carbonyl)-hydrazino]-2-hydroxy-propionic acid], the Ki is not above 1 nM. Turning to `O=C(NN(Cc1ccc(-c2cc(Cl)ccc2O)cc1)C[C@H](O)C(=O)O)c1cc(O)no1` [Example 8-6, (S)-3-[N-(5′-Chloro-2′-hydroxy-biphenyl-4-ylmethyl)-N′-(3-hydroxy-isoxazole-5-carbonyl)-hydrazino]-2-hydroxy-propionic acid], the inhibition constant Ki is 1.26 to 10 nM. Turning to `O=C(NN(Cc1ccc(-c2cc(F)cc(Cl)c2)cc1)C[C@H](O)C(=O)O)c1cc(O)no1` [Example 8-24, (S)-3-[N-(5′-Chloro-3′-fluoro-biphenyl-4-ylmethyl)-N′-(3-hydroxy-isoxazole-5-carbonyl)-hydrazino]-2-hydroxy-propionic acid], the Ki was 1.26 to 10 nM.

As for `O=C(NN(Cc1ccc(-c2cc(Cl)ccc2F)cc1)C[C@@H](O)C(=O)O)c1cc(-c2ccccc2Cl)no1` [Example 8-17, (R)-3-{N-(5′-Chloro-2′-fluoro-biphenyl-4-ylmethyl)-N′-[3-(2-chloro-phenyl)-isoxazole-5-carbonyl]-hydrazino}-2-hydroxy-propionic acid], the Ki is not above 1 nM. Consider `O=C(NN(Cc1ccc(-c2cccc(Cl)c2)cc1)C[C@@H](O)C(=O)O)c1cc(-c2cnccn2)n[nH]1` [Example 4-24, (R)-3-[N-(3′-Chlorobiphenyl-4-ylmethyl)-N′-(5-pyrazin-2-yl-2H-pyrazole-3-carbonyl)-hydrazino]-2-hydroxy-propionic acid], for which the Ki was 1.26 to 10 nM.

`O=C(NCCO)c1cc(C(=O)NN(Cc2ccc(-c3ccccc3)cc2)C[C@@H](O)C(=O)O)[nH]n1` [Example 2-2, (R)-3-{N-Biphenyl-4-ylmethyl-N′-[5-(2-hydroxyethylcarbamoyl)-2H-pyrazole-3-carbonyl]hydrazino}-2-hydroxypropionic acid]: the Ki is 1.26 to 10 nM.

With `O=C(NN(Cc1ccc(-c2cc(Cl)ccc2F)cc1)C[C@@H](O)C(=O)O)c1cc(-c2cccc(Cl)c2)no1` [Example 8-16, (R)-3-{N-(5′-Chloro-2′-fluoro-biphenyl-4-ylmethyl)-N′-[3-(3-chloro-phenyl)-isoxazole-5-carbonyl]-hydrazino}-2-hydroxy-propionic acid], the inhibition constant Ki was not above 1 nM.

As to `O=C(NN(Cc1ccc(-c2cc(Cl)ccc2F)cc1)C[C@@H](O)C(=O)O)c1cc(-c2cnccn2)[nH]n1` [Example 8-50, (R)-3-[N-(5′-Chloro-2′-fluoro-biphenyl-4-ylmethyl)-N′-(5-pyrazin-2-yl-1H-pyrazole-3-carbonyl)-hydrazino]-2-hydroxy-propionic acid], the Ki is not above 1 nM.
